Reference: US11317626B2, “Forchlorfenuron mixtures and uses thereof” (Valent BioSciences LLC, priority 2018, dated 2022)

Experiments:
Type in all cases: in vivo
[1] = system: Concord grape vines; assay: Example 2: Concord grape vines greenhouse, forchlorfenuron and 17-0-0 fertilizer (CAN17) study; details: for Fresh Weight at Harvest: combined shoot fresh weight, 52 days after planting; for 50% BB: days after treatment to 50% bud break; for Average Number of Broken Nodes Per Plant at Harvest: harvest 52 days after planting
From the text: (§1) To assess the ability of mixtures of the invention to promote and synchronize bud break these mixtures were applied to Concord grape vines and examined for bud break (initiation of growth) and subsequent shoot development. Specifically, dormant bare-rooted Concord grape vines were planted in pots containing Pro-Mix® BX potting soil (Pro-Mix is a registered trademark of and available from Premier Horticulture Ltd.) and pruned to five nodes on a single shoot of one-year-old wood. Nodes are regions on the shoot where leaves arise from the shoot and buds are present at the axis of the shoot:leaf interface. The bud found at the shoot:leaf interface develops into the vines new shoot growth. Aqueous solutions of forchlorfenuron, HC, 15-0-0 fertilizer, 17-0-0 fertilizer, and mixtures thereof were each applied individually or sequentially or co-applied to the first-year wood of separate Concord grape vines. […] Percent bud break is determined by the number of plants that have at least one bud broken divided by the total number of plants per treatment times 100. […] New shoot growth is the growth arising from the dormant buds not including the woody growth that was planted and gave rise to the new growth.
(§2) To determine if the mixtures provided unexpected results, the observed combined efficacy (“OCE”) was divided by the expected combined efficacy (“ECE”) wherein the expected ECE is calculated by the Abbott method: ECE=A+B−(AB/100), • wherein ECE is the expected combined efficacy and in which A and B are the speed of bud break relative to control, the number of buds broken per plant relative to control, shoot length relative to control or shoot weight relative to control given by the single active ingredients. If the ratio between the OCE of the mixture and the ECE of the mixture is greater than 1, then greater than expected interactions are present in the mixture. (Gisi, Synergistic Interaction of Fungicides in Mixtures, The American Phytopathological Society, 86:11, 1273-1279,1996). Results
(§3) The experiment from Example 1 was repeated with varying quantities of forchlorfenuron and fertilizers in a greenhouse experiment.

[2] = system: Concord grape vines; assay: Example 2: Concord grape vines greenhouse, forchlorfenuron and 15-0-0 fertilizer (Erger) study; details: for Fresh Weight at Harvest: combined shoot fresh weight, 52 days after planting; for 50% BB: days after treatment to 50% bud break; for Average Number of Broken Nodes Per Plant at Harvest: harvest 52 days after planting
From the text: as §1, §2, §3

[3] = system: Flame seedless grape vines; assay: Example 3: bud break on spurs of field-grown Flame seedless grape vines; details: 41 days post application
Protocol: as §2
To assess the ability of mixtures of the invention to promote and synchronize bud break, these mixtures were applied to field-grown Flame seedless grape vines in Thermal, Calif., and examined for bud break (initiation of growth) and subsequent shoot development. Forchlorfenuron, Dormex (50% HC), 15-0-0 (Erger®) and 17-0-0 fertilizers (CAN17), and mixtures thereof were each applied individually or sequentially (co-applied) to the separate spurs of Flame seedless grape vines. Plants were evaluated for bud break at 41 days after treatment. Results of these evaluations can be seen below in Tables 11 and 12.

## O=C(Nc1ccccc1)Nc1ccnc(Cl)c1 [CPPU, N-(2-Chloro-4-pyridyl)-N′-phenylurea]
[1]; listed as CPPU 300 ppm
  Fresh Weight at Harvest: 14.30 grams
  50% BB: 31 days
  Average Number of Broken Nodes Per Plant at Harvest: 1.86
[1]; listed as CPPU 600 ppm
  Fresh Weight at Harvest: 15.10 grams
  50% BB: 35 days
  Average Number of Broken Nodes Per Plant at Harvest: 2.00
[1]; listed as CPPU 1000 ppm
  Fresh Weight at Harvest: 11.33 grams
  50% BB: 38 days
  Average Number of Broken Nodes Per Plant at Harvest: 1.80
[2]; listed as CPPU 300 ppm
  Fresh Weight at Harvest: 18.04 grams
  50% BB: 26 days
  Average Number of Broken Nodes Per Plant at Harvest: 1.25
[2]; listed as CPPU 600 ppm
  Fresh Weight at Harvest: 18.54 grams
  50% BB: 31 days
  Average Number of Broken Nodes Per Plant at Harvest: 1.88
[2]; listed as CPPU 1000 ppm
  Fresh Weight at Harvest: 29.13 grams
  50% BB: 24 days
  Average Number of Broken Nodes Per Plant at Harvest: 2.63
[3]; listed as CPPU 300 ppm
  Broken Buds per Spur (OCE): 0.00
  Percentage of Spurs With At Least One Bud Broken (OCE): 0%
[3]; listed as CPPU 600 ppm
  Broken Buds per Spur (OCE): 0.03
  Percentage of Spurs With At Least One Bud Broken (OCE): 3%
[3]; listed as CPPU 1000 ppm
  Broken Buds per Spur (OCE): 0.00
  Percentage of Spurs With At Least One Bud Broken (OCE): 0%
